Data taken from publication PMC7012010, “Synthesis and biological evaluation of 2-styrylquinolines as antitumour agents and EGFR kinase inhibitors: molecular docking study” (Journal of Enzyme Inhibition and Medicinal Chemistry, 2017).
In brackets after ≈: the same amount, converted by molar mass.

What was measured:
[1] = system: HepG2; assay: MTT antitumour (cytotoxicity) assay, HepG2; assay type: cell-based; settings: Homo sapiens, HepG2, HepG2 cell line, 50% inhibition of tumour cell proliferation, read-out: In vitro cytotoxicity IC50
Protocol: (§1) The designed compounds were evaluated for their in vitro antitumour effect using the standard MTT method against two human tumour cell lines, namely, HepG2 and HCT116[45–48]. The quantitative evaluation of the cytotoxicity was performed using tetrazolium salt MTT (3-(4,5-dimethyl-2-thiazolyl)-2,5-diphenyl-2 H-tetrazolium bromide) assay. The cytotoxic activity was expressed as the concentration of the compound that caused 50% growth inhibition (IC50, mean ± SEM) compared with the growth of untreated cells.

[2] = system: HCT116; assay: MTT antitumour (cytotoxicity) assay, HCT116; assay type: cell-based; settings: Homo sapiens, HCT-116, HCT116 cell line, 50% inhibition of tumour cell proliferation, read-out: In vitro cytotoxicity IC50
Protocol: as §1

[3] = target: EGFR kinase (Homo sapiens, UniProt P00533); assay: ELISA-based EGFR-TK kinase inhibition assay; assay type: biochemical; settings: n = 3, read-out: Enzymatic IC50 toward EGFR kinase
Chain of EGFR kinase (P00533 25-1210): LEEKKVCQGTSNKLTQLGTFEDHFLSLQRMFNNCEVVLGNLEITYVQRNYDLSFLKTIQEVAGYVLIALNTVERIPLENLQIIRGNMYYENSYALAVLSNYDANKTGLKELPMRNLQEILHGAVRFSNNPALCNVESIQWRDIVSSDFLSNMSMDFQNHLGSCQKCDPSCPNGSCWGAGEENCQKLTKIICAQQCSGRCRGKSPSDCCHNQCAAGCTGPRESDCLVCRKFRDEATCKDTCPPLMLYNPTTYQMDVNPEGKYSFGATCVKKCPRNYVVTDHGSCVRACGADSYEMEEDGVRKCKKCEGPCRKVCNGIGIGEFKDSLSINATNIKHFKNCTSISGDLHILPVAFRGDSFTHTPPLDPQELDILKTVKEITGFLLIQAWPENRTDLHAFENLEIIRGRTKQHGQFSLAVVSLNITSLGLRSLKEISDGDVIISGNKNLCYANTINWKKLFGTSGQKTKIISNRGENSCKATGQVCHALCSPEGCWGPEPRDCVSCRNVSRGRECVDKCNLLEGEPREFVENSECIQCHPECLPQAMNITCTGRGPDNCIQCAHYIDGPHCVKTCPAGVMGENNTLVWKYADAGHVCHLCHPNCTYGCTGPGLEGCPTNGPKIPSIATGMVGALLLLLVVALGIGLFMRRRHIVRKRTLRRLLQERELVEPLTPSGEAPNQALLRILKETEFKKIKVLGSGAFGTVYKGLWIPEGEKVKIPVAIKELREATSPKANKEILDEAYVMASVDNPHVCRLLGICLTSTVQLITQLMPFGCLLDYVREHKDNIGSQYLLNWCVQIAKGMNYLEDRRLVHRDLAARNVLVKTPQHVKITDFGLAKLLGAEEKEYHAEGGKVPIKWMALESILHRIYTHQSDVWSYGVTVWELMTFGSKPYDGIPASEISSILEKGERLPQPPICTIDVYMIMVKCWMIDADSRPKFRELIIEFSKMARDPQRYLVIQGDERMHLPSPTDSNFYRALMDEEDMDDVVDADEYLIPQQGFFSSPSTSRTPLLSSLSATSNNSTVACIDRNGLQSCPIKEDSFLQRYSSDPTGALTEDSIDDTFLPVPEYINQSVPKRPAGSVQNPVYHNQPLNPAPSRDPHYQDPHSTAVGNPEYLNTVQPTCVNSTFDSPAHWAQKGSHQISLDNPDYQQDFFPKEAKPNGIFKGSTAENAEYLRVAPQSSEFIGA
Protocol: EGFR kinase activity was determined via enzyme-linked immunosorbent assay (ELISA) in 96-well plates. The EGFR kinase activity for each compound were expressed as IC50 values. Data were represented as mean ± SD from three independent experiments, and differences between groups were considered statistically significant at p < .05.
The mechanism of antitumour activity of the target compounds was studied using ELISA-based EGFR-TK assay.

IC50 [3] [µM] | melting point [°C] | Structure (SMILES) | IC50 [1] [µg/mL] | IC50 [2] [µg/mL]
– | 242 | CN(C)c1ccc(C=Cc2cc(C(=O)Oc3ccc(C=O)cc3)c3cc(Br)ccc3n2)cc1 [Compound 6a, 4-Formylphenyl 6-bromo-2-(4-(dimethylamino)styryl)quinoline-4-carboxylate] | 82.9 ± 4.64 (≈ 165 µM) | 96.6 ± 5.4 (≈ 193 µM)
– | 248 | Cc1ccc2nc(C=Cc3ccc(N(C)C)cc3)cc(C(=O)Oc3ccc(C=O)cc3)c2c1 [Compound 6b, 4-Formylphenyl 2-(4-(dimethylamino)styryl)-6-methylquinoline-4-carboxylate] | > 100 | > 100
– | 232 | CN(C)c1ccc(C=Cc2cc(C(=O)NNc3ccccc3)c3cc(Br)ccc3n2)cc1 [Compound 7a, 6-Bromo-2-(4-(dimethylamino)styryl)-N'-phenylquinoline-4-carbohydrazide] | 46.1 ± 2.81 (≈ 94.6 µM) | 49.7 ± 3 (≈ 102 µM)
– | 228 | Cc1ccc2nc(C=Cc3ccc(N(C)C)cc3)cc(C(=O)NNc3ccccc3)c2c1 [Compound 7b, 2-(4-(Dimethylamino)styryl)-6-methyl-N'-phenylquinoline-4-carbohydrazide] | 72.8 ± 3.82 (≈ 172 µM) | 61.4 ± 3.76 (≈ 145 µM)
16 | > 300 | CCOC(=O)C(C#N)C(=O)c1cc(C=Cc2ccc(N(C)C)cc2)nc2ccc(Br)cc12 (centres unmarked) [Compound 8a, Ethyl 3-(6-bromo-2-(4-(dimethylamino)styryl)quinolin-4-yl)-2-cyano-3-oxopropanoate] | 26.2 ± 1.79 (≈ 53.2 µM) | 16 ± 0.88 (≈ 32.5 µM)
– | > 300 | CCOC(=O)C(C#N)C(=O)c1cc(C=Cc2ccc(N(C)C)cc2)nc2ccc(C)cc12 (centres unmarked) [Compound 8b, Ethyl 2-cyano-3-(2-(4-(dimethylamino)styryl)-6-methylquinolin-4-yl)-3-oxopropanoate] | 43.7 ± 2.66 (≈ 102 µM) | 52.6 ± 3.92 (≈ 123 µM)
– | > 300 | CC(=O)C(C(C)=O)C(=O)c1cc(C=Cc2ccc(N(C)C)cc2)nc2ccc(Br)cc12 [Compound 9a, 3-(6-Bromo-2-(4-(dimethylamino)styryl)quinoline-4-carbonyl)pentane-2,4-dione] | 65.4 ± 3.18 (≈ 136 µM) | 57.3 ± 3.07 (≈ 120 µM)
– | > 300 | CC(=O)C(C(C)=O)C(=O)c1cc(C=Cc2ccc(N(C)C)cc2)nc2ccc(C)cc12 [Compound 9b, 3-(2-(4-(Dimethylamino)styryl)-6-methylquinoline-4-carbonyl)pentane-2,4-dione] | > 100 | 93.1 ± 5.64 (≈ 225 µM)

The next lines start with the compound.

Structure (SMILES) | IC50 [3] [µM] | melting point [°C] | IC50 [1] [µg/mL] | IC50 [2] [µg/mL]
CN(C)C/C=C/C(=O)Nc1cc2c(Nc3ccc(F)c(Cl)c3)ncnc2cc1O[C@H]1CCOC1 [Afatinib, afatinib, reference compound] | – | – | 5.4 ± 0.25 (≈ 11.1 µM) | 11.4 ± 1.26 (≈ 23.5 µM)
CN(C)c1ccc(/C=C/c2cc(C(=O)O)c3cc(Br)ccc3n2)cc1 [Compound 3a] | 2.23 | – | 9.8 ± 0.2 (≈ 24.7 µM) | 9 ± 0.35 (≈ 22.7 µM)
Cc1ccc2nc(C=Cc3ccc(N(C)C)cc3)cc(C(=O)O)c2c1 [Compound 3b, 2–(4-(Dimethylamino)styryl)-6-methylquinoline-4-carboxylic acid] | 8.01 | 275 | 17.2 ± 1.04 (≈ 51.7 µM) | 14.8 ± 0.89 (≈ 44.5 µM)
CN(C)c1ccc(C=Cc2cc(-c3nnc(N)s3)c3cc(Br)ccc3n2)cc1 [Compound 4a, 5-(6-Bromo-2–(4-(dimethylamino)styryl)quinolin-4-yl)-1,3,4-thiadiazol-2-amine] | 8.78 | 223 | 9 ± 0.19 (≈ 19.9 µM) | 14.2 ± 0.67 (≈ 31.4 µM)
Cc1ccc2nc(C=Cc3ccc(N(C)C)cc3)cc(-c3nnc(N)s3)c2c1 [Compound 4b, 5-(2-(4-(Dimethylamino)styryl)-6-methylquinolin-4-yl)-1,3,4-thiadiazol-2-amine] | 1.11 | 226 | 7.7 ± 0.15 (≈ 19.9 µM) | 8.8 ± 0.26 (≈ 22.7 µM)
O=c1[nH]cc(F)c(=O)[nH]1 [Compound 5-FU, 5-fluorouracil, reference compound] | – | – | 7.9 ± 0.17 (≈ 60.7 µM) | 5.3 ± 0.32 (≈ 40.7 µM)
